Structures are written as SMILES. Read-outs that look alike come from different tables or passages of the source.

Here are results for four molecules from patent US20240140962A1, “5,6-DIHYDROTHIENO[3,4-H]QUINAZOLINE COMPOUND” (MEDSHINE DISCOVERY INC., priority 2021, published 2024).

In one data set the test system is HCT116 cells. Kind of data set: HCT116 cytological activity in vitro (3D CellTiter-Glo proliferation). It counts as cell-based, human. To be noted: Homo sapiens, HCT-116, 120 h, 5 days culture, ultra-low adsorption plates. The procedure:
McCoy's 5A medium, penicillin/streptomycin antibiotics was purchased from Vicente, and fetal bovine serum was purchased from Biosera. 3D CellTiter-Glo (cell viability chemiluminescence assay reagent) reagent was purchased from Promega. HCT116 cell line was purchased from Nanjing Cobioer Biosciences Co., Ltd. Envision multimode microplate reader (PerkinElmer).
HCT116 cells were seeded in ultra-low adsorption 96-well U-plates, 80 μL of cell suspension per well, which contained 1000 HCT116 cells. Cell plates were cultured overnight in a carbon dioxide incubator.
The compound to be tested was 5-fold diluted to the 9th concentration with a pipette, that is, diluted from 2 mM to 5.12 nM, and a double-well experiment was set up. 78 μL of medium was added to the intermediate plate, and then 2 μL of each well of the gradient diluted compound was transferred to the intermediate plate according to the corresponding position, 20 μL of each well was transferred to the cell plate after mixing well. Compound concentrations transferred to cell plates ranged from 10 μM to 0.0256 nM. Cell plates were cultured in a carbon dioxide incubator for 5 days. Another cell plate was prepared, and the signal value was read as the maximum value (Max value in the following equation) on the day of drug addition to participate in data analysis.
Every 100 μL of cell viability chemiluminescent detection reagent was added to the cell plate, and incubated at room temperature for 10 minutes to stabilize the luminescent signal. A multimode microplate reader was used to read.
The equation (Sample−Min)/(Max−Min)*100% was used to convert the original data into an inhibition rate, and the value of IC50 can be obtained by curve fitting with four parameters (“log(inhibitor) vs. response in GraphPad Prism—Variable slope” mode). Table 3 provides the inhibitory activity of the compounds of the present disclosure against the proliferation of HCT116 cells.
Background: ATP-based viability assays read luminescence as a measure of living cells.

Data set [1] relates to human colon cancer HCT116 cells subcutaneous xenograft tumor. The experiment in a line: In vivo pharmacodynamic study, subcutaneous xenograft tumor model of human colon cancer HCT116 cells. On the set-up: species or system BALB/c Nude mouse. The settings on record: tumor volume on day 22 after dosing. The procedure: In this experiment, human colon cancer HCT116 cells were subcutaneously transplanted into BALB/c Nude mouse model to evaluate the antitumor effect of the test compound in vivo.
HCT116 cell culture: 10% fetal calf serum was added to McCoy's 5A medium and cultured in 37° C. 5% CO2 cell incubator. When the cell saturation reached 80% to 90% and the number reached the requirement, cells were collected, counted and inoculated subcutaneously into BALB/c Nude mice (female, 6 to 7 weeks old)
When the tumors grew to a certain size, the animals with tumor volumes that were too large, too small, or with irregular tumor shapes were eliminated, and animals with tumor volumes ranging from 103.12 to 174.35 mm^3 were selected. According to the tumor volume, the animals were divided into 6 groups by random block method, and each group was composed of 6 mice wherein the average volume of the tumor was about 147.12 mm^3 , and the experimental grouping and dosing regimen were shown in Table 5 below. The health status and death of the animals were monitored every day. Routine inspections included observation of tumor growth and the effects of drug treatment on the daily behavior of the animals, such as behavioral activities, food and water intake, body weight changes (measured twice a week), tumor size (tumor volume was measured twice a week), appearance signs or other abnormal conditions.
The formula for calculating tumor volume (TV) was: ½×a×b^2, where a and b were the measured length and width of the tumor, respectively. The formula for calculating the tumor inhibition rate TGI (%) was: TGI (%)=[1−(average tumor volume at the end of administration of a certain treatment group−average tumor volume at the beginning of administration of this treatment group)/(average tumor volume at the end of treatment of the solvent control group−average tumor volume at the beginning of treatment in solvent control group)]×100%.
In this study, the experimental data were expressed as Mean±SEM. Statistical analysis was based on the data of RTV at the end of the experiment using IBM SPSS Statistics software. The comparison between two groups was analyzed by T test, and the comparison between three or more groups was analyzed by one-way ANOVA. If the variances were homogeneous (the F value had no significant difference), the Tukey's method was used for analysis. If the variances were not homogeneous (the F value had significant differences), and the Games-Howell method was used for testing. p<0.05 was considered as a significant difference.
For orientation: In xenograft studies the graft and the host belong to different species.

Data set [2] is described as follows: Pharmacokinetic study in CD-1 male mice by oral administration and intravenous injection. The settings on record: mouse, plasma; for Vd: read-out: Apparent volume of distribution Vdss; for AUC(0-t): read-out: Area under the plasma concentration-time curve AUC0-24 h; for clearance: read-out: Clearance CL; for half-life: read-out: Half-life T½ (converted); for Cmax: read-out: Peak concentration Cmax; for Tmax: read-out: Peak time Tmax; for bioavailability: read-out: Bioavailability F. It counts as in vivo. From the text:
The purpose of this experiment is to study the pharmacokinetics of the test compound in the plasma of CD-1 male mice after intravenous injection and oral administration.
Intravenous injection group: an appropriate amount of the test compound was weighed and dissolved in 20% SBE-b-CD aqueous solution and the pH was adjusted to 4 to 5 with 6 M hydrochloric acid, and the mixture was vortexed for 2, minutes to obtain a clear solution, and then pH was adjusted around 7 with 5 N sodium hydroxide, and the mixture was vortexed for 1 minute to prepare a 1.5 mg/mL clear solution, which was filtered through a 0.22 μm microporous membrane for later use. CD-1 male mice from 6 to 10 weeks old were selected and given a solution of the test compound intravenously. Samples were collected at 0.083, 0.25, 0.5, 1, 2, 4, 6, 8, and 24 hours.
Oral administration group: an appropriate amount of the test compound was weighed and dissolved in 20% SBE-b-CD aqueous solution, and the pH was adjusted to 3 to 4 with 6 M hydrochloric acid, and the mixture was vortexed for 2, minutes to obtain a clear solution, and then pH was adjusted around 7 with 5 N sodium hydroxide, and mixture was vortexed for 1 minute to prepare a 2.0 mg/mL clear solution for later use. CD-1 male mice between 6 and 10 weeks of age were selected and given the test compounds orally. Samples were collected at 0.25, 0.5, 1, 2, 4, 6, 8, 10, and 24 hours.
Approximately 50 μL of whole blood was collected through the jugular vein at each time point for plasma preparation for concentration determination by high performance liquid chromatography-tandem mass spectrometry (LC-MS/MS). All animals were euthanized under CO2 anesthesia after collecting the PK samples at the last time point. The plasma concentration was processed using the non-compartmental model of WinNonlin™ Version 6.3 (Pharsight, Mountain View, CA) pharmacokinetic software, and the pharmacokinetic parameters were calculated using the linear logarithmic trapezoidal method, and the experimental results are shown in Table 4.

A further data set has as its target PLK2 (Homo sapiens (Human), UniProt Q9NYY3). Kind of data set: PLK2 kinase activity in vitro, 33P isotope-labeled kinase activity test. It counts as biochemical. To be noted: 33P-ATP 30 μM, PLK2 15 nM. The procedure: (§1) The ^33P isotope-labeled kinase activity test (Reaction Biology Corp) was used to determine the IC50 value to evaluate the inhibitory ability of the test compound to the human PLK family protein kinase PLK2/PLK3/PLK4.
(§2) Buffer conditions: 20 mM HEPES (pH 7.5), 10 mM MgC2, 1 mM EGTA, 0.01% Brij35, 0.02 mg/ml BSA, 0.1 mM Na3VO4, 2 mM DTT, 1% DMSO.
(§3) Test steps: At room temperature, the compounds to be tested were dissolved in DMSO to prepare a 10 mM solution for use. The substrate Casein was dissolved in the freshly prepared buffer (with a final concentration of 20 μM), and the tested PLK2/PLK3/PLK4 kinases (with a final concentration of 15/10/150 nM, respectively) were added thereto and mixed well. The acoustic wave pipetting system Echo 550 was used to add the mother solution of the test compound dissolved in DMSO to the above mixed reaction mixture according to the set final concentration gradient (the highest final concentration was 1 μM, 3-fold dilution, 10 gradients). After incubation at room temperature for 20 minutes, ^33P-ATP (with a final concentration of 30/50/10 μM, respectively) was added, then after incubation at room temperature for 120 minutes, the reaction mixture was spotted on P81 ion exchange filter paper (Whatman #3698-915).

For a further data set, the target named is PLK4 (Homo sapiens (Human), UniProt O00444). Kind of data set: PLK4 kinase activity in vitro, 33P isotope-labeled kinase activity test. It counts as biochemical. To be noted: 33P-ATP 10 μM, PLK4 150 nM. The method, then:
as §1, §2, §3

Another data set concerns the target PLK3 (Homo sapiens (Human), UniProt Q9H4B4). The experiment in a line: PLK3 kinase activity in vitro, 33P isotope-labeled kinase activity test. The settings on record: 33P-ATP 50 μM, PLK3 10 nM. It counts as biochemical. The method, then: as §1, §2, §3
The subject of data set [3] is KRAS-mutant mCRC patients. The settings on record: cited from earlier work.
Where [4] appears, read: 60 mg/kg PO QD (5 days on, 2 days off).

PLK3, sequence (Q9H4B4 whole entry): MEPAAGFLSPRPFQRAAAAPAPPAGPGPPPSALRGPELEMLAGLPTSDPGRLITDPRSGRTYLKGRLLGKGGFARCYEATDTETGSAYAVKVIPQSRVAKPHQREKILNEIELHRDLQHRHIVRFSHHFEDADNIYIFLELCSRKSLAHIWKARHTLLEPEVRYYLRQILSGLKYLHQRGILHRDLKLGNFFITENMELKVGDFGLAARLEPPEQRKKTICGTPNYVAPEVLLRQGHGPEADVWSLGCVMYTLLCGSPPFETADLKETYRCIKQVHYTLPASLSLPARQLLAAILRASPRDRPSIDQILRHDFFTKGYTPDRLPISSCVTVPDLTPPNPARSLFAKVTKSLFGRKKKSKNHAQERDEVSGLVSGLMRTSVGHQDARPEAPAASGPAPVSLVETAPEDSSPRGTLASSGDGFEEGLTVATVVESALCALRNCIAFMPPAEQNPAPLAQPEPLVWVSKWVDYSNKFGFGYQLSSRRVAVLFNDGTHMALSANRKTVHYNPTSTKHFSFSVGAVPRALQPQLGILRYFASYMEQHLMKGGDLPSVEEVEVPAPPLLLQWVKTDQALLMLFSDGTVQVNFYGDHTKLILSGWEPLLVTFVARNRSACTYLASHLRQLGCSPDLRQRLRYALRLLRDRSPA
PLK4, sequence (O00444 whole entry): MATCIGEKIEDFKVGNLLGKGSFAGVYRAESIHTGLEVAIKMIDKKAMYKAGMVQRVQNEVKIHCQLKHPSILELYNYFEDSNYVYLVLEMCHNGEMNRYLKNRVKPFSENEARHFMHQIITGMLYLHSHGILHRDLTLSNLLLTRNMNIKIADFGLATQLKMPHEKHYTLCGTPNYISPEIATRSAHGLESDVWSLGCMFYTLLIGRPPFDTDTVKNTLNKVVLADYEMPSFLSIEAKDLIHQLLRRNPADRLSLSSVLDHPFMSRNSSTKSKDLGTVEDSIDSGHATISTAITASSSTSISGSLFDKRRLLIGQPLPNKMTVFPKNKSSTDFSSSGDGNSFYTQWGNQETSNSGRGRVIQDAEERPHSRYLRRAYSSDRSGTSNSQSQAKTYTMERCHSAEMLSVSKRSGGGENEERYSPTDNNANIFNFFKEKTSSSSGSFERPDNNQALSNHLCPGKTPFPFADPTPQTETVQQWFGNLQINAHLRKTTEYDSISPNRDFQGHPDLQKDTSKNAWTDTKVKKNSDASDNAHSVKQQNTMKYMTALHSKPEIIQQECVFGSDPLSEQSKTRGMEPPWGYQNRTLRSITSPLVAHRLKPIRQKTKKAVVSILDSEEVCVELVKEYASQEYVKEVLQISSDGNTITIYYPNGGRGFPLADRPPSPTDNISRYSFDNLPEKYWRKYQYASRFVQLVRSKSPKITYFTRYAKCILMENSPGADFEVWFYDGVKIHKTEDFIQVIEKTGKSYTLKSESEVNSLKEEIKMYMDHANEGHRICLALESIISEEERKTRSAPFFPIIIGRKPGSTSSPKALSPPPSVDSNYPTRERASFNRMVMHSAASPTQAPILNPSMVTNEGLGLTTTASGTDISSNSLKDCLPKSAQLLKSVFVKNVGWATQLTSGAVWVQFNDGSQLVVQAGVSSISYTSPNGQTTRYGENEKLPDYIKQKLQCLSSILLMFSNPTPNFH
PLK2, sequence (Q9NYY3 whole entry): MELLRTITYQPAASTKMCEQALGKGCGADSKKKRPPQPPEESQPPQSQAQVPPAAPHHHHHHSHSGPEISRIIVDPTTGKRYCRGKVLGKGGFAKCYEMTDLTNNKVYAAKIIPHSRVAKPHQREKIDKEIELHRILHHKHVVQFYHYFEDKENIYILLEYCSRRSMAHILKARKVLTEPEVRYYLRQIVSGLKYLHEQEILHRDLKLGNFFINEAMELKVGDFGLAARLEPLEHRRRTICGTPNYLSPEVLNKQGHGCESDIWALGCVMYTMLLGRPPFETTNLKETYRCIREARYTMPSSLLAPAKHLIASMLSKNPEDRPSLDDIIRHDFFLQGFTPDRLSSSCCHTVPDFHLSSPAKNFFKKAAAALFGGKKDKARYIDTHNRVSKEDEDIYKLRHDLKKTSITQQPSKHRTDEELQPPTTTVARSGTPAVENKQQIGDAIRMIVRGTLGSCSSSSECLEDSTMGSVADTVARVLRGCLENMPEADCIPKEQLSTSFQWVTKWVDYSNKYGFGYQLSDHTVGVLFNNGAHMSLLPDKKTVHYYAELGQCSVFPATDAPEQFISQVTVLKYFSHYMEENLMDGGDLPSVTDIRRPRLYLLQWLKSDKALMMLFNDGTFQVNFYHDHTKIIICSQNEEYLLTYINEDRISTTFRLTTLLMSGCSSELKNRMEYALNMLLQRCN

The term IC50 denotes the concentration needed to halve the response being measured. A high value points to a need for much substance. What is called TGI is how far tumour growth fell short of that in controls. One may read the half-life as the time needed for the level to fall by half in the phase considered. For orientation: Tmax means the time at which the peak concentration occurs. Broadly, the bioavailability is dose-corrected exposure relative to a reference, in per cent. In the data set on HCT116 cells, `CCOc1sc(C(N)=O)c2c1-c1nc(Nc3cc(N4CCN(C)CC4)ccc3OC(F)(F)F)ncc1CC2` [Compound 2] displayed an IC50 of 30.8 nM. Besides, the TGI in data set [1] (setting [4]) is given as 72.5%. Further, in data set [2] (IV, 1.0 mg/kg), the Vd was found to be 2.89 L/kg, the AUC(0-t) was 0.624 µM·h, the clearance came out at 47.9 mL/min/kg and the half-life was 69 min. In data set [2] (PO, 3.0 mg/kg), the AUC(0-t) came to 1.02 µM·h, the Cmax was determined as 478 nM and the Tmax stood at 45 min. Moreover, the bioavailability in data set [2] (PO 3.0 mg/kg vs IV 1.0 mg/kg) was determined as 54.2%.

As to `CSc1sc(C(N)=O)c2c1-c1nc(Nc3cc(N4CCN(C)CC4)ccc3OC(F)(F)F)ncc1CC2` [Compound 1], the IC50 against PLK2 is > 10000 nM. Moreover, the IC50 in the data set on HCT116 cells stood at 27 nM. For the same molecule, the IC50 on PLK4 is > 10000 nM. This molecule also yielded a TGI in data set [1] (30 mg/kg PO QD (5 days on, 2 days off)) of 72.9%. The molecule also came in with a TGI in data set [1] (45 mg/kg PO QD (5 days on, 2 days off)) of 87.3%. Besides, the 50% inhibitory concentration (IC50) at PLK3 was > 10000 nM. In data set [2] (IV, 0.5 mg/kg), the Vd was found to be 3.37 L/kg, the AUC(0-t) is 0.41 µM·h, the clearance was found to be 37.8 mL/min/kg and the half-life was 88.2 min. Also, in data set [2] (PO, 2.0 mg/kg), the AUC(0-t) was determined as 1.05 µM·h, the Cmax came to 386 nM and the Tmax was determined as 45 min. Besides, the bioavailability in data set [2] (PO 2.0 mg/kg vs IV 0.5 mg/kg) worked out at 66.4%.

Turning to `CN1CCN(c2ccc(OC(F)(F)F)c(Nc3ncc4c(n3)-c3c(c(C(N)=O)nn3CCO)CC4)c2)CC1` [Onvansertib], the “safety profile in clinical studies” value in data set [3] (clinical studies) is recorded as “acceptable safety profile”. The clinical benefit in data set [3] (share of KRAS-mutant mCRC patients, early clinical research) is 88%.

Turning to `CSc1sc(C(N)=O)c2c1-c1nc(Nc3cc(N4CCN(CCO)CC4)ccc3OC(F)(F)F)ncc1CC2` [Compound 8], in the data set with HCT116 cells, the IC50 is 52 nM. Also, the TGI in data set [1] (setting [4]) worked out at 85.4%. In data set [2] (IV, 0.5 mg/kg), the Vd is 2.04 L/kg, the AUC(0-t) was determined as 0.374 µM·h, the clearance is 37.4 mL/min/kg and the half-life is 44.4 min. Besides, in data set [2] (PO, 2.2 mg/kg), the AUC(0-t) turned out to be 0.459 µM·h, the Cmax is 157 nM and the Tmax amounted to 45 min. Further, the bioavailability in data set [2] (PO 2.2 mg/kg vs IV 0.5 mg/kg) worked out at 30.9%.
